One data set has as its target T1, MAO-A (Homo sapiens, UniProt P21397).
T1 sequence (P21397 1-527): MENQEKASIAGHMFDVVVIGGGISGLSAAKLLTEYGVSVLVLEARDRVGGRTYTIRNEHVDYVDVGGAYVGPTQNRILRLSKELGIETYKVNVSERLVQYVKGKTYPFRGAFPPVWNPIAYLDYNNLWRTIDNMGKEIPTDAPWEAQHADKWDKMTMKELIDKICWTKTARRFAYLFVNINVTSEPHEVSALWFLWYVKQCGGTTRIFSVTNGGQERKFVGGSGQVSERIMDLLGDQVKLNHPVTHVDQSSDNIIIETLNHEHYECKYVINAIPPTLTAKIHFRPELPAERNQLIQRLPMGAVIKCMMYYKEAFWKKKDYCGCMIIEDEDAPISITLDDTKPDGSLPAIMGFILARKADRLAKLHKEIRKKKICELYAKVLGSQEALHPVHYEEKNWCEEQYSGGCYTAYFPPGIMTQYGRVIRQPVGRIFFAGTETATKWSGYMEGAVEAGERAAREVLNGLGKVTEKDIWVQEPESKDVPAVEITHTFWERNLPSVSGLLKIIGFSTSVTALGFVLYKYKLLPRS
In words: MAO-A activity (metabolism of compound). The note with it: versus the DMT analogs.

In data set [1] the test system is C57BL/6J mice. In words: Head twitch response (HTR). In kind it is in vivo, mouse. The note with it: s.c., presence or absence of 5-HT1A antagonist WAY-100635. As for the experimental part: The head-twitch response evaluation was performed by trained observers who were blinded to both drug and dose. Mice were habituated to the testing room 30 min. The body weight of each mouse was recorded. The HTR was defined as a rapid rotational movement of the head around the longitudinal axis of the animals' body. Mice were administered with vehicle or WAY100,635 (1 mg/kg or 2 mg/kg, sc). Fifteen minutes after the pretreatment injection mice were administered either 4F, 5-MeO-MET (0.1, 0.3, 1 or 3 mg/kg, sc) or 5-MeO-MET (0.3, 1, 3, and 10 mg/kg, sc) and placed in a novel observation cage. An overhead camera (GoPro HERO9 at a 120 Hz, San Mateo, CA, US) recorded their movements. Observers scored HTR from recorded footage for the first 10-min period.

Data set [2] has as its target T2, 5-HT1A (Homo sapiens, UniProt P08908). The data set is described as follows: BRET signaling assay: 5-HT1A-mediated activation of heterotrimeric Gi1 (TRUPATH, HEK293-T). The note with it: for pEC50: Gi BRET EC50. On the technique in general: Bioluminescence resonance energy transfer reports proximity on the nanometre scale.
In the next data set the test system is mice. In words: Open field locomotor activity. In kind it is in vivo, mouse. The note with it: mice, s.c.
For data set [3], the target named is T3, 5-HT2A (Homo sapiens, UniProt P28223). The data set is described as follows: cell-based. To be noted: for Emax: read-out: 5-HT2A (IP1) Emax (%5-HT). Details: expressed in transfected cells; host or cells: HEK293-T.
T3 sequence (P28223 whole entry): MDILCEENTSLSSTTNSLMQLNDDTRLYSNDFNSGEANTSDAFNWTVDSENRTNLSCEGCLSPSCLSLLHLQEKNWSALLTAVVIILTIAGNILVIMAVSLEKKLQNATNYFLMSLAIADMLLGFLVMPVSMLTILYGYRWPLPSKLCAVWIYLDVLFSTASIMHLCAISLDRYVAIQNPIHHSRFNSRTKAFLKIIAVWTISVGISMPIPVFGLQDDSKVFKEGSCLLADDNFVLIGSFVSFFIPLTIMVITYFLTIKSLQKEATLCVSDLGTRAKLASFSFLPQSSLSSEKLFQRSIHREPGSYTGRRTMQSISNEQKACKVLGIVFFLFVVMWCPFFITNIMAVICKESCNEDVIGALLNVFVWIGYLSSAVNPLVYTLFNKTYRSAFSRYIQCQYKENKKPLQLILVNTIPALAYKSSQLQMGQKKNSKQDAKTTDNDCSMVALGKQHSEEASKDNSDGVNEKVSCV
The target in the next data set is 5-HT2B (Homo sapiens, UniProt P41595). In words: IP1 functional assay 5-HT2B. It counts as cell-based. The note with it: for Emax: read-out: 5-HT2B (IP1) Emax (%5-HT).
5-HT2B, sequence (P41595 whole entry, species assumed): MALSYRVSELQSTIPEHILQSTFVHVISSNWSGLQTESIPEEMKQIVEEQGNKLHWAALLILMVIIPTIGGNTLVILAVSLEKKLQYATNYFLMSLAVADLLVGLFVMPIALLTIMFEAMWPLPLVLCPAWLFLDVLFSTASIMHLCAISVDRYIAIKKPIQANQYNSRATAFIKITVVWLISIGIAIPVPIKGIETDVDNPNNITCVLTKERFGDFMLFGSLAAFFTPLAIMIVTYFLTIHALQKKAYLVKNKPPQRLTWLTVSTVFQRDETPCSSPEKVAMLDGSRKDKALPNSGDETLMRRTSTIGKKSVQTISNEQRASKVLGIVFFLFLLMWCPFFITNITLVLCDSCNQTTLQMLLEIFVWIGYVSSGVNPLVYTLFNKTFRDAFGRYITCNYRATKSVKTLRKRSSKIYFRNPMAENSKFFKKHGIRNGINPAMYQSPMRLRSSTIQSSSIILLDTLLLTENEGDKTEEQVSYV
In the next data set the target is T4, 5-HT1A N386V (Homo sapiens, UniProt P08908, N386V).
T4 construct: expressed in transfected cells; host or cells: HEK293-T
T4 sequence (P08908 1-422 N386V): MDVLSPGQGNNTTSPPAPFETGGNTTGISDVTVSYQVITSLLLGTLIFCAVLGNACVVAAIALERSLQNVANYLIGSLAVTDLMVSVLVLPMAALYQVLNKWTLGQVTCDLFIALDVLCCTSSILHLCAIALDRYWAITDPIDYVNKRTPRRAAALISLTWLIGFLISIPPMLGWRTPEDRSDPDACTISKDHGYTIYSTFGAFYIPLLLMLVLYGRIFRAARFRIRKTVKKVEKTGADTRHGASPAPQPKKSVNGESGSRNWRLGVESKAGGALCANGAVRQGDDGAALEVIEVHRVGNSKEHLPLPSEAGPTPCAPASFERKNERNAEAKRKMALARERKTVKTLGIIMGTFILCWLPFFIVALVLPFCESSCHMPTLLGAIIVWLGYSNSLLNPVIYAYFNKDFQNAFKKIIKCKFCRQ
In words: Gi1 BRET at mutant 5-HT1A N386V. It counts as cell-based.

The target in another data set is T5, 5-HT2A V366N (Homo sapiens, UniProt P28223, V366N).
T5 construct: expressed in transfected cells; host or cells: HEK293-T
T5 sequence (P28223 whole entry V366N): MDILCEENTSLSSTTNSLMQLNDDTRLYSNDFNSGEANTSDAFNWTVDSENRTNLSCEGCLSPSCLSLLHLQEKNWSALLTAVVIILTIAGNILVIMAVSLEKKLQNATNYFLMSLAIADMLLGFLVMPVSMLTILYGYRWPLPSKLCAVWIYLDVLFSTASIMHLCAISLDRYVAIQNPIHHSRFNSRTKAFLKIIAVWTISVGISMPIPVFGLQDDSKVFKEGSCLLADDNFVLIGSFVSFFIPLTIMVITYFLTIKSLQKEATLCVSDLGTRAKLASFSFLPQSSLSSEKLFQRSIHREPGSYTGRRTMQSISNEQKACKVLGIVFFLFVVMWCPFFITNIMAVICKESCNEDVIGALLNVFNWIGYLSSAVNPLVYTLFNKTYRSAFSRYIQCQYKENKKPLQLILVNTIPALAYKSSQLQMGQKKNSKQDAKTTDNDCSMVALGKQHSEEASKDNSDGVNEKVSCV
In words: Gq BRET at mutant 5-HT2A V366N. In kind it is cell-based.

Data set [4] concerns the target T3, 5-HT2A. In words: cell-based. The note with it: for EC50: EC50 (nM), Gq BRET, 5-HT2A WT.
The next data set has as its target T6, 5-HT1A A365N (Homo sapiens, UniProt P08908, A365N).
T6 construct: expressed in transfected cells; host or cells: HEK293-T
T6 sequence (P08908 1-422 A365N): T4 sequence (P08908 1-422 N386V) with A365N, V386N
In words: Gi1 BRET at mutant 5-HT1A A365N. It counts as cell-based.

In data set [5] the target is T3, 5-HT2A. To be noted: relative to 5-MeO-DMT.
The next data set concerns the target T7, human 5-HT1A (Homo sapiens, UniProt P08908).
T7 sequence (P08908 1-422): T4 sequence (P08908 1-422 N386V) with V386N
In words: cell-based.

For data set [6], the target named is T2, 5-HT1A. The data set is described as follows: cell-based.
The nature of data set [7]: Microsomal stability, human liver microsomes. The note with it: versus the DMT analogs. It counts as in vitro ADME. As for the experimental part:
Microsomal incubations were carried out in 96-well plates in 5 aliquots of 30 μL each (one for each time point). Liver microsomal incubation medium comprised of phosphate buffer (100 mM, pH 7.4), MgCl2 (3.3 mM), NADPH (3 mM), glucose-6-phosphate (5.3 mM), glucose-6 phosphate dehydrogenase (0.67 units/ml) with 0.42 mg of liver microsomal protein per ml. In the control reactions the NADPH-cofactor system was substituted with phosphate buffer. Test compounds (2 μM, final solvent concentration 1.6%) were incubated with microsomes at 37° C., shaking at 100 rpm. Each reaction was performed in duplicates. Five time points over 90 minutes were analyzed. The reactions were stopped by adding 5 volumes of methanol containing internal standard to incubation aliquots, followed by protein sedimentation by centrifuging at 5500 rpm for 4 minutes. Supernatants were analyzed using the HPLC system coupled with tandem mass spectrometer. The elimination constant (kel), half-life (t1/2) and intrinsic clearance (Clint) were determined in plot of […] versus time, using linear regression analysis.

The subject of data set [8] is C57BL/6J mice. The data set is described as follows: Sucrose preference test after chronic social defeat stress. It counts as in vivo, mouse. To be noted: stressed mice, relative to vehicle-treated animals. From the text:
The sucrose preference test is a volitional two-bottle choice procedure in which mice are given the choice between consuming water and a 1% sucrose solution. This paradigm has been used extensively to assess the effects of stress-induced anhedonia. On day 10 of CSDS mice were individually housed and habituated to two bottles containing just water. Twenty-four hours later, following the SI test, one bottle was replaced with a 1% sucrose solution (w/v) made with water from the animal vivarium. Mice had ad libitum overnight access to both bottles and preference for sucrose over water was calculated as follows: [sucrose/(sucrose+water)*100]. Data were averaged from two independent experiments. A total of 27 mice were administered vehicle (9 control, 18 stress), 27 received 4-F, 5-MeO-PyrT (9 control, 18 stress), 15 received WAY-100635 (5 control, 10 stress), and 15 received 4-F, 5-MeO-PyrT+WAY-100635 (5 control, 10 stress). More animals were used for the stressed groups due to the inherent resilience of mice to social defeat stress (Krishnan et al. 2007). Analysis of different treatment conditions of control and stressed animals was done in GraphPad Prism using two-way ANOVA.

Where a chain is given by its changes, count along the chain named. pEC50: −log10 of the molar value. Entries after “also recorded” stand apart in the source; their conditions may differ. Read-outs that look alike come from different tables or passages of the source. Some results are limits rather than exact numbers.

T2 sequence (P08908 whole entry): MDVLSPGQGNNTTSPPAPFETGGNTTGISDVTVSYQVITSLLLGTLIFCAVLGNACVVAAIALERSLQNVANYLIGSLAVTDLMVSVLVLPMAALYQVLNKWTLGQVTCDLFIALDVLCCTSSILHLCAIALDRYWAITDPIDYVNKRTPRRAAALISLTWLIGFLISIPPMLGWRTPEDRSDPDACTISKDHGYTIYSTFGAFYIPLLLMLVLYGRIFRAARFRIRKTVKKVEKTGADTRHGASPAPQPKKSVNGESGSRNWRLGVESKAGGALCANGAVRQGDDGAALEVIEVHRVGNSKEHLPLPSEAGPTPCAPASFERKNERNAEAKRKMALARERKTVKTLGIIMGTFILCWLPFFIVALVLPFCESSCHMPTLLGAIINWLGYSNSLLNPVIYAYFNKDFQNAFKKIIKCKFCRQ

`C=CCN(C)CCc1c[nH]c2ccc(OC)c(F)c12` [4-F, 5-MeO MALT]: the “MAO A metabolism” value on MAO-A is recorded as “markedly slower MAO A metabolism versus the DMT analogs”.
Consider `CCN(C)CCc1c[nH]c2ccc(OC)cc12` [Compound 5-MeO-MET], for which, in the data set on C57BL/6J mice [1], the “head-twitch response (HTR), measure of 5-HT2A-mediated hallucinogenic activity” value was “robust HTR in the presence of WAY100; also recorded: robust dose-dependent activity”. The pEC50 (usually −log10 of the EC50, conventionally taken in molar units) on 5-HT1A [2] was 7.59; on 5-HT2A [3], 7.02; on 5-HT2B (Table 3, read-out: 5-HT2B (IP1) EC50), 6.89. Also, the “locomotor suppression in the open field (OF) test” value with mice is on record as “dose-dependent locomotor suppression”. Also, the figures for the Emax on 5-HT2A [3] and on 5-HT2B (Table 3) were 107% and 62%, respectively.
Take `COc1ccc2[nH]cc(CCN3CCCC3)c2c1` [Compound 18, 5-methoxy-N,N-pyrrolidinyl-tryptamine]: at 5-HT1A [2] (5-HT1A Gi BRET vs 5-HT2A Gq BRET), the “selectivity for 5-HT1A>5-HT2A” value is greater than 38 fold. In addition, the concentration for a half-maximal effect (EC50) (commonly the concentration needed to bring the measured effect to its halfway point) came out at 2.13 nM at 5-HT1A [2] (EC50 (nM), Gi1 BRET, 5-HT1A WT); 81.5 nM at 5-HT2A [4]; 28.9 nM at 5-HT1A A365N (EC50 (nM), Gi1 BRET, 5-HT1A A365N^6.55). The pEC50 is 8.68 at 5-HT1A [2], 7.60 on 5-HT1A N386V and 7.26 at 5-HT2A V366N. For the same compound, the “increase in 5-HT1A>5-HT2A selectivity” value on 5-HT1A [2] (cyclization of the amine moiety, relative to 5-MeO-DMT) is recorded as roughly 38 fold.
As to `COc1ccc2[nH]cc(CCN(C)C)c2c1F` [Compound 25, 2-(4-fluoro-5-methoxy-1H-indol-3-yl)-N,N-dimethylethane-1-amine], the “Efficacy as %5HT (SEM) 5-HT1A BRET Gi1” value at 5-HT1A [2] is 103.5 1.59) %5HT. Besides, at 5-HT1A [2], the “increase in signaling potency at 5-HT1A” value turned out to be 14 fold. The EC50 worked out at 1.77 nM at 5-HT1A [2] (EC50 (nM)), 1.77 nM at 5-HT1A [2] (EC50 (nM) 5-HT1A BRET Gi1) and 86.5 nM at 5-HT2A [4]. In addition, the “decrease in potency at 5-HT2A” value at 5-HT2A [5] was determined as 3 fold. The pEC50 on 5-HT1A N386V was 8.43; on 5-HT2A V366N, 6.41; on 5-HT2A [4], 7.06; at 5-HT1A A365N, 7.70; on human 5-HT1A it was 9.73.
For `CCCN(C)CCc1c[nH]c2ccc(OC)c(F)c12` [Compound 28, N-(2-(4-fluoro-5-methoxy-1H-indol-3-yl)ethyl)-N-methylpropan-1-amine], the pEC50 on 5-HT1A [6] is 8.51; at 5-HT2A [4], 6.94; on 5-HT2A [3] it was 6.60; on human 5-HT1A, 9.38; at 5-HT2B, 7.14. For the same compound, in [7], the “microsomal stability in human microsomes” value is “greater stability in human microsomes versus the DMT analogs”. In addition, at MAO-A, the “MAO A metabolism” value was “markedly slower MAO A metabolism versus the DMT analogs”. Besides, the maximal response (Emax) – broadly, the maximal effect, on the per cent scale that the assay sets – at 5-HT2A [3] amounted to 106%; at 5-HT2B (Table 3) it was 47%.
Turning to `CCCN(CCC)CCc1c[nH]c2ccc(OC)c(F)c12` [Compound 30, N-(2-(4-fluoro-5-methoxy-1H-indol-3-yl)ethyl)-N-propylpropan-1-amine], the pEC50 was 8.43 at 5-HT1A [6]; 6.85 on 5-HT2A [4]; 6.74 at 5-HT2A [3]; 8.88 at human 5-HT1A; 7.00 on 5-HT2B. Besides, the “microsomal stability in human microsomes” value in data set [7] is listed as “greater stability in human microsomes versus the DMT analogs”. For the same compound, on MAO-A, the “MAO A metabolism” value is “markedly slower MAO A metabolism versus the DMT analogs”. For the same compound, the Emax amounted to 100% at 5-HT2A [3] and 86% at 5-HT2B (Table 3).
For the compound `COc1ccccc1N1CCN(CCN(C(=O)C2CCCCC2)c2ccccn2)CC1` [WAY-100635, reference compound], the sucrose preference entry with C57BL/6J mice [8] is listed as “not statistically significant”.

Values taken from patent publication US20260034119A1, “5-METHOXY-N,N-[…][…], THEIR […], AND METHODS FOR TREATMENT OF NEUROLOGICAL, […], AND SUBSTANCE USE DISORDERS” (priority 2023, published 2026).
